For data set [1], the system named is HeLa cells. In words: Cellular uptake and intracellular release of DOX (CLSM). It counts as cell-based. The following applies: DOX 12.5 μg/mL. Here is the method: HeLa cells are plated on microscope slides in a 24-well plate (5×10^4 cells/well) under 5% CO2 atmosphere at 37° C. using Dulbecco's modified Eagle's medium (DMEM) supplemented with 10% fetal bovine serum, 1% L-glutamine, antibiotics penicillin (100 IU/mL), and streptomycin (100 μg/mL). […] After incubation at 37° C. and a humidified 5% CO2-containing atmosphere for 0.5, 2 or 4 h, the culture media are removed and the cells on microscope plates are washed three times with PBS. The cells are then fixed with 4% formaldehyde for 15 min and washed with PBS 3 times. The cell nuclei are stained with 4′,6-diamidino-2-phenylindole (DAPI, blue) for 15 min and washed with PBS 3 times.

The subject of data set [2] is HeLa cells. In words: Cell viability MTT assay, HeLa. Format: cell-based. The following applies: DOX 12.5 μg/mL. As for the experimental part:
HeLa and MCF-7 cells are plated in a 96-well plate (1×10^4 cells/well) using DMEM medium supplemented with 10% fetal bovine serum, 1% L-glutamine, antibiotics penicillin (100 IU/mL), and streptomycin (100 μg/mL) and incubation for 24 h. […] Then 3-(4,5-dimethylthiazol-2-yl)-2,5-diphenyl tetrazoliumbromide (MTT) solution in PBS (10 μL, 5 mg/mL) are added and incubated for another 4 h. The medium is aspirated, the MTT-formazan generated by live cells is dissolved in 150 μL of DMSO, and the absorbance at a wavelength of 490 nm of each well is measured using a microplate reader. The relative cell viability (%) is determined by comparing the absorbance at 490 nm with control wells containing only cell culture medium. Data are presented as average±SD (n=4).

Take `COc1cccc2c1C(=O)c1c(O)c3c(c(O)c1C2=O)C[C@@](O)(C(=O)CO)C[C@@H]3O[C@H]1C[C@H](N)[C@H](O)[C@H](C)O1` [free DOX, doxorubicin]: the “intracellular distribution of DOX” value in data set [1] is listed as “mainly accumulated in cell nucleus”. Also, the cell viability in data set [2] (24 h) amounted to 31.8%; in data set [2] (48 h), 19.1%.
